Molecular target: Human immunodeficiency virus type 1 reverse transcriptase (Human immunodeficiency virus 1, UniProt Q72547)
Test: Inhibitory activity against HIV-1 reverse transcriptase

With `CC(=O)Nc1ccc2c(c1)C(C#CC(C)C)(C(F)(F)F)OC(=O)N2` (stereo unspecified) the IC50 was < 2000 nM.

From ChEMBL document CHEMBL1138728, “QSAR modelling of HIV-1 reverse transcriptase inhibition by benzoxazinones using a combination of P_VSA and pharmacophore feature descriptors” (Bioorg Med Chem Lett, 2004)
